Data as given in US12685312B2, “Sulfonamide apyrase inhibitors” (Texas Crop Science, Inc., priority 2022, dated 2026).

test system: apyrase; assay: Screen for apyrase inhibitors (Method 1, in vitro phosphate-release absorbance assay); format: biochemical; settings: inhibitor conc at 1 mM stock, 1 hr room temperature, absorbance 630 nm; rounded average of two assay results
Summary of the method: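 Phosphate-release colorimetric assay (Windsor method) in 60 mM Hepes, 3 mM MgCl2, 3 mM CaCl2, 3 mM ATP, pH 6.5, with compound or DMSO control added. Released phosphate developed with ammonium molybdate and ascorbic acid/TCA, then stopped with citrate/acetic acid.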

| Structure (SMILES) | % Inhibition of Apyrase |
| --- | --- |
| CC(=O)c1cc2c(cc1NC(=O)c1cccc(S(=O)(=O)N3CCc4ccccc43)c1)OCO2 [I-584, N-(6-acetylbenzo[d][1,3]dioxol-5-yl)-3-(indolin-1-ylsulfonyl)benzamide] | 46% |
| O=C(Nc1ccccc1N1CCOCC1)c1cccc(S(=O)(=O)N2CCc3ccccc32)c1 [I-585, 3-(indolin-1-ylsulfonyl)-N-(2-morpholinophenyl)benzamide] | 45% |
| CCOc1ccc(NC(=O)c2cccc(S(=O)(=O)Nc3ccc4c(c3)OCO4)c2)cc1OC [I-586, 3-(N-(benzo[d][1,3]dioxol-5-yl)sulfamoyl)-N-(4-ethoxy-3-methoxyphenyl)benzamide] | 44% |
| Cc1nc2cc(NC(=O)c3cccc(S(=O)(=O)N4CCc5ccccc54)c3)ccc2o1 [I-587, 3-(indolin-1-ylsulfonyl)-N-(2-methylbenzo[d]oxazol-5-yl)benzamide] | 44% |
| COc1ccc(NC(=O)c2ccc(Cl)c(S(=O)(=O)N3CCc4ccccc43)c2)cc1OC [I-588, 4-chloro-N-(3,4-dimethoxyphenyl)-3-(indolin-1-ylsulfonyl)benzamide] | 43% |
| CC(=O)Nc1cccc(NC(=O)c2cccc(S(=O)(=O)N3c4ccccc4CC3C)c2)c1 (stereo not shown) [I-589, N-(3-acetamidophenyl)-3-((2-methylindolin-1-yl)sulfonyl)benzamide] | 42% |
| COc1ccc(NC(=O)c2cccc(S(=O)(=O)Nc3ccc4c(c3)OCO4)c2)c(OC)c1 [I-590, 3-(N-(benzo[d][1,3]dioxol-5-yl)sulfamoyl)-N-(2,4-dimethoxyphenyl)benzamide] | 42% |
| Cc1ccc(N(C)S(=O)(=O)c2cccc(C(=O)Nc3ccc(C)cc3C)c2)cc1 [I-591, N-(2,4-dimethylphenyl)-3-(N-methyl-N-(p-tolyl)sulfamoyl)benzamide] | 41% |
| Cc1nc2ccc(NC(=O)c3cccc(S(=O)(=O)N4CCc5ccccc54)c3)cc2s1 [I-592, 3-(indolin-1-ylsulfonyl)-N-(2-methylbenzo[d]thiazol-6-yl)benzamide] | 41% |
| COc1ccc(S(=O)(=O)N2CCc3ccccc32)cc1C(=O)Nc1ccc(C)c(C)c1 [I-593, N-(3,4-dimethylphenyl)-5-(indolin-1-ylsulfonyl)-2-methoxybenzamide] | 38% |
| CCNC(=O)c1cccc(NC(=O)c2cccc(S(=O)(=O)Nc3cccc(C(F)(F)F)c3)c2)c1 [I-594, N-ethyl-3-(3-(N-(3-(trifluoromethyl)phenyl)sulfamoyl)benzamido) benzamide] | 36% |
| O=C(Nc1cccc2ncccc12)c1cccc(S(=O)(=O)N2CCc3ccccc32)c1 [I-596, 3-(indolin-1-ylsulfonyl)-N-(quinolin-5-yl)benzamide] | 35% |
| COc1ccc(S(=O)(=O)N2CCc3ccccc32)cc1C(=O)Nc1ccc(OC(F)(F)F)cc1 [I-597, 5-(indolin-1-ylsulfonyl)-2-methoxy-N-(4-(trifluoromethoxy)phenyl)benzamide] | 35% |
| O=C(Nc1ccc2[nH]c(=O)[nH]c2c1)c1cccc(S(=O)(=O)N2CCc3ccccc32)c1 [I-598, 3-(indolin-1-ylsulfonyl)-N-(2-oxo-2,3-dihydro-1H-benzo[d]imidazol-5-yl)benzamide] | 31% |
| COc1ccc(Cl)cc1NS(=O)(=O)c1cccc(C(=O)Nc2ccc(N(C)C)nc2)c1 [I-599, 3-(N-(5-chloro-2-methoxyphenyl)sulfamoyl)-N-(6-(dimethylamino)pyridin-3-yl)benzamide] | 30% |
| O=C(Nc1ccccc1N1CCCC1=O)c1cccc(S(=O)(=O)N2CCc3ccccc32)c1 [I-600, 3-(indolin-1-ylsulfonyl)-N-(2-(2-oxopyrrolidin-1-yl)phenyl)benzamide] | 29% |
| O=C(Nc1ccc(N2CCOCC2)cc1)c1cccc(S(=O)(=O)N2CCc3ccccc32)c1 [I-601, 3-(indolin-1-ylsulfonyl)-N-(4-morpholinophenyl)benzamide] | 29% |
| CC1Cc2ccccc2N1S(=O)(=O)c1cccc(C(=O)Nc2cccc3ncccc23)c1 (stereo not shown) [I-602, 3-((2-methylindolin-1-yl)sulfonyl)-N-(quinolin-5-yl)benzamide] | 28% |
| CS(=O)(=O)c1ccc2c(c1)N(C(=O)c1cccc(S(=O)(=O)N3CCc4ccccc43)c1)CCC2 [I-603, (3-(indolin-1-ylsulfonyl)phenyl)(7-(methylsulfonyl)-3,4-dihydroquinolin-1(2H)-yl)methanone] | 25% |
| O=C(Nc1ccccc1Cl)c1cccc(S(=O)(=O)N2CCc3ccccc32)c1 [I-604, N-(2-chlorophenyl)-3-(indolin-1-ylsulfonyl)benzamide] | 23% |
| COc1cc(C)c(NC(=O)c2cccc(S(=O)(=O)N3CCc4ccccc43)c2)cc1OC [I-605, N-(4,5-dimethoxy-2-methylphenyl)-3-(indolin-1-ylsulfonyl)benzamide] | 23% |
| COc1ccc(NS(=O)(=O)c2cccc(C(=O)Nc3cnc4[nH]nc(C)c4c3)c2)cc1 [I-606, 3-(N-(4-methoxyphenyl)sulfamoyl)-N-(3-methyl-1H-pyrazolo[3,4-b]pyridin-5-yl)benzamide] | 16% |

| Structure (SMILES) | % Inhibition of Apyrase |
| --- | --- |
| NC(=O)c1ccc(NC(=O)c2cccc(S(=O)(=O)N3CCc4ccccc43)c2)cc1 [I-607, N-(4-carbamoylphenyl)-3-(indolin-1-ylsulfonyl)benzamide] | 16% |
| CC(=O)NS(=O)(=O)c1ccc(NC(=O)c2cccc(S(=O)(=O)N3CCc4ccccc43)c2)cc1 [I-608, N-(4-(N-acetylsulfamoyl)phenyl)-3-(indolin-1-ylsulfonyl)benzamide] | 14% |
| O=C(Nc1ccc2c(c1)OCCCO2)c1cccc(S(=O)(=O)N2CCc3ccccc32)c1 [I-609, N-(3,4-dihydro-2H-benzo[b][1,4]dioxepin-7-yl)-3-(indolin-1-ylsulfonyl)benzamide] | 13% |
| CC(=O)c1ccccc1NC(=O)c1cccc(S(=O)(=O)N2c3ccccc3CC2C)c1 (stereo not shown) [I-610, N-(2-acetylphenyl)-3-((2-methylindolin-1-yl)sulfonyl)benzamide] | 4% |
| Cc1ccc(S(=O)(=O)Nc2ccccc2F)cc1C(=O)Nc1ccc(F)cc1F [I-611, N-(2,4-difluorophenyl)-5-(N-(2-fluorophenyl)sulfamoyl)-2-methylbenzamide] | 4% |
| COc1ccc(NC(=O)c2cccc(S(=O)(=O)Nc3cccc(Cl)c3)c2)cn1 [I-612, 3-(N-(3-chlorophenyl)sulfamoyl)-N-(6-methoxypyridin-3-yl)benzamide] | 4% |
| Cc1ccc(NC(=O)c2cccc(S(=O)(=O)Nc3ccccc3F)c2)c(F)c1 [I-613, N-(2-fluoro-4-methylphenyl)-3-(N-(2-fluorophenyl)sulfamoyl)benzamide] | 3% |
| CCOc1ccc(NS(=O)(=O)c2cccc(C(=O)Nc3ccc(OC)cc3)c2)cc1 [I-614, 3-(N-(4-ethoxyphenyl)sulfamoyl)-N-(4-methoxyphenyl)benzamide] | 1% |
| O=C(Nc1ccccn1)c1cccc(S(=O)(=O)Nc2cccc(Cl)c2)c1 [I-615, 3-(N-(3-chlorophenyl)sulfamoyl)-N-(pyridin-2-yl)benzamide] | 1% |
| O=C(Nc1ccccn1)c1cccc(NS(=O)(=O)c2ccc(Br)cc2)c1 [I-627, 3-((4-bromophenyl)sulfonamido)-N-(pyridin-2-yl)benzamide] | 71% |
| Cc1cc(NC(=O)c2cccc(NS(=O)(=O)c3ccc4c(c3)OCCO4)c2)no1 [I-628, 3-((2,3-dihydrobenzo[b][1,4]dioxine)-6-sulfonamido)-N-(5-methylisoxazol-3-yl)benzamide] | 68% |
| O=C(Nc1cccnc1)c1cccc(NS(=O)(=O)c2ccc3c(c2)OCCCO3)c1 [I-629, 3-((3,4-dihydro-2H-benzo[b][1,4]dioxepine)-7-sulfonamido)-N-(pyridin-3-yl)benzamide] | 67% |
| O=C(Nc1cccc2cccnc12)c1cccc(NS(=O)(=O)c2cccs2)c1 [I-630, N-(quinolin-8-yl)-3-(thiophene-2-sulfonamido)benzamide] | 66% |
| O=C(Nc1cccc(Cl)c1)c1cccc(NS(=O)(=O)c2cccs2)c1 [I-631, N-(3-chlorophenyl)-3-(thiophene-2-sulfonamido)benzamide] | 62% |
| O=C(Nc1ccc2c(c1)CCC2)c1cccc(NS(=O)(=O)c2cccs2)c1 [I-632, N-(2,3-dihydro-1H-inden-5-yl)-3-(thiophene-2-sulfonamido)benzamide] | 62% |
| Cc1cnc(NC(=O)c2cccc(NS(=O)(=O)c3ccc(Cl)c(Cl)c3)c2)[nH]1 [I-633, 3-((3,4-dichlorophenyl)sulfonamido)-N-(5-methyl-1H-imidazol-2-yl)benzamide] | 60% |
| O=C(Nc1cccc(C(F)(F)F)c1)c1cccc(NS(=O)(=O)c2ccc(Cl)s2)c1 [I-634, 3-((5-chlorothiophene)-2-sulfonamido)-N-(3-(trifluoromethyl)phenyl)benzamide] | 59% |
| O=C(Nc1nc2ccccc2[nH]1)c1cccc(NS(=O)(=O)c2ccc3c(c2)OCCCO3)c1 [I-635, N-(1H-benzo[d]imidazol-2-yl)-3-((3,4-dihydro-2H-benzo[b][1,4]dioxepine)-7-sulfonamido)benzamide] | 58% |
| Cc1ccc(NC(=O)c2cccc(NS(=O)(=O)c3cccs3)c2)cc1C [I-636, N-(3,4-dimethylphenyl)-3-(thiophene-2-sulfonamido)benzamide] | 58% |
| O=C(Nc1nc2c(s1)CCC2)c1cccc(NS(=O)(=O)c2ccc3c(c2)OCCO3)c1 [I-637, N-(5,6-dihydro-4H-cyclopenta[d]thiazol-2-yl)-3-((2,3-dihydrobenzo[b][1,4]dioxine)-6-sulfonamido)benzamide] | 57% |
| O=C(Nc1cccc2ncccc12)c1cccc(NS(=O)(=O)c2cccs2)c1 [I-638, N-(quinolin-5-yl)-3-(thiophene-2-sulfonamido)benzamide] | 57% |
